This note sets out measurements from patent publication US9073855B2, “BCL-2 selective apoptosis-inducing agents for the treatment of cancer and immune diseases” (AbbVie Inc., priority 2008, dated 2015).

As a reminder, the Ki is the dissociation constant of the complex between target and ligand, obtained from inhibition or displacement. A low value points to higher affinity.

SMILES strings stand for the structures.

One assay concerns the target GST-Bcl-XL (Homo sapiens, UniProt Q07817). Nature of the assay: TR-FRET binding assay, GST-Bcl-XL with F-Bak peptide probe. Conditions: TR-FRET Binding Affinity. In outline:
(§1)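 Competitive TR-FRET: GST-fusion protein, fluorescent Bak peptide probe and Tb-labelled anti-GST antibody incubated with compound dilution series (starting 50 μM as 2× stock, 10% DMSO) for 3 h at RT. Excitation 340/35 nm; Ki derived via Wang's exact competitive-binding equation.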
For orientation: TR-FRET usually uses a lanthanide donor and a delayed reading to cut background.

The next assay concerns the target GST-Bcl-2 (Homo sapiens, UniProt P10415). Nature of the assay: TR-FRET binding assay, GST-Bcl-2 with F-Bak peptide probe. Conditions: for Ki: TR-FRET Binding Affinity; for Binding selectivity ratio (Bcl-XL Ki/Bcl-2 Ki): TR-FRET, Bcl-XL Ki divided by Bcl-2 Ki. In outline:
as §1

Chain of GST-Bcl-XL (Q07817 whole entry, the tested form may be a part): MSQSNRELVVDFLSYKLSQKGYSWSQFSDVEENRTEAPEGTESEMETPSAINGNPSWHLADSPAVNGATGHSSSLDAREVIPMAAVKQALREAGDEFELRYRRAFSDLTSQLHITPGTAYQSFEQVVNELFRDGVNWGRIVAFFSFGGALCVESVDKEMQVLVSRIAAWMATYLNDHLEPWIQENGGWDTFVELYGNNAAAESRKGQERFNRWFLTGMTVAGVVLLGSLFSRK
Chain of GST-Bcl-2 (P10415 whole entry): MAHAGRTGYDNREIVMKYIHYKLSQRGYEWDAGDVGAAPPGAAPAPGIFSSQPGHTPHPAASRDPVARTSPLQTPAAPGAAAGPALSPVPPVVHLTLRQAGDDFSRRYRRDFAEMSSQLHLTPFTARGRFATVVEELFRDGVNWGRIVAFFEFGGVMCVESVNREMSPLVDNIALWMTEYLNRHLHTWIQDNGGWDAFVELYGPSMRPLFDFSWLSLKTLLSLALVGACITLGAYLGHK

`CC1(C)CCC(CN2CCN(c3cc(Oc4cccc5[nH]ncc45)c(C(=O)NS(=O)(=O)c4ccc(NCC5(F)CCOCC5)c([N+](=O)[O-])c4)cc3Cl)CC2)=C(c2ccc(Cl)cc2)C1` [Example 511, 5-chloro-4-(4-{[2-(4-chlorophenyl)-4,4-dimethylcyclohex-1-en-1-yl]methyl}piperazin-1-yl)-N-[(4-{[(4-fluorotetrahydro-2H-pyran-4-yl)methyl]amino}-3-nitrophenyl)sulfonyl]-2-(1H-indazol-4-yloxy)benzamide]: the Ki on GST-Bcl-XL is 21.6 nM; at GST-Bcl-2 it was under 0.01 nM. In addition, the “Binding selectivity ratio (Bcl-XL Ki/Bcl-2 Ki)” value (from here on “Binding selectivity ratio”) at GST-Bcl-2 is over 2159.2.

As to `CC1(C)CCC(CN2CCN(c3ccc(C(=O)NS(=O)(=O)c4cnc(OCC5(F)CCC(C)(O)CC5)c(Cl)c4)c(Oc4cccc5[nH]ncc45)c3)CC2)=C(c2ccc(Cl)cc2)C1` (stereo not drawn) [Example 512, N-({5-chloro-6-[(cis-1-fluoro-4-hydroxy-4-methylcyclohexyl)methoxy]pyridin-3-yl}sulfonyl)-4-(4-{[2-(4-chlorophenyl)-4,4-dimethylcyclohex-1-en-1-yl]methyl}piperazin-1-yl)-2-(1H-indazol-4-yloxy)benzamide], the Ki at GST-Bcl-XL was 17.3 nM; at GST-Bcl-2, under 0.01 nM. In addition, on GST-Bcl-2, the “Binding selectivity ratio” value was over 1733.8.

`CC1(C)CCC(CN2CCN(c3ccc(C(=O)NS(=O)(=O)c4cnc(OC[C@]5(F)CC[C@](C)(O)CC5)c(Cl)c4)c(Oc4cccc5[nH]ncc45)c3)CC2)=C(c2ccc(Cl)cc2)C1` [Example 513, N-({5-chloro-6-[(trans-1-fluoro-4-hydroxy-4-methylcyclohexyl)methoxy]pyridin-3-yl}sulfonyl)-4-(4-{[2-(4-chlorophenyl)-4,4-dimethylcyclohex-1-en-1-yl]methyl}piperazin-1-yl)-2-(1H-indazol-4-yloxy)benzamide] yielded a Ki at GST-Bcl-XL of 6.46 nM. For the same molecule, on GST-Bcl-2, the Ki was under 0.01 nM and the “Binding selectivity ratio” value is on record as over 646.2.

On to `CC1(C)CCC(CN2CCN(c3ccc(C(=O)NS(=O)(=O)c4ccc(NCC5(F)CCOCC5)c([N+](=O)[O-])c4)c(Oc4cccc5[nH]nnc45)c3)CC2)=C(c2ccc(Cl)cc2)C1` [Example 514, 2-(1H-benzotriazol-4-yloxy)-4-(4-{[2-(4-chlorophenyl)-4,4-dimethylcyclohex-1-en-1-yl]methyl}piperazin-1-yl)-N-[(4-{[(4-fluorotetrahydro-2H-pyran-4-yl)methyl]amino}-3-nitrophenyl)sulfonyl]benzamide], for which the inhibitory constant (Ki) on GST-Bcl-XL amounted to 10.4 nM. At GST-Bcl-2, the Ki is under 0.01 nM and the “Binding selectivity ratio” value was over 1041.3.

For the molecule `CC1(C)CCC(CN2CCN(c3ccc(C(=O)NS(=O)(=O)c4cnc(OCC5(F)CCOCC5)c(Cl)c4)c(Oc4cccc5[nH]nnc45)c3)CC2)=C(c2ccc(Cl)cc2)C1` [Example 515, 2-(1H-benzotriazol-4-yloxy)-N-({5-chloro-6-[(4-fluorotetrahydro-2H-pyran-4-yl)methoxy]pyridin-3-yl}sulfonyl)-4-(4-{[2-(4-chlorophenyl)-4,4-dimethylcyclohex-1-en-1-yl]methyl}piperazin-1-yl)benzamide], the inhibition constant Ki at GST-Bcl-XL is 140 nM; on GST-Bcl-2 it was under 0.01 nM. The “Binding selectivity ratio” value on GST-Bcl-2 is reported as over 13994.0.

Regarding `CC1(C)CCC(CN2CCN(c3ccc(C(=O)NS(=O)(=O)c4ccc(OCC5CCOCC5)c(Cl)c4)c(Oc4cccc5[nH]cnc45)c3)CC2)=C(c2ccc(Cl)cc2)C1` [Example 516, 2-(1H-benzimidazol-4-yloxy)-4-(4-{[2-(4-chlorophenyl)-4,4-dimethylcyclohex-1-en-1-yl]methyl}piperazin-1-yl)-N-{[3-chloro-4-(tetrahydro-2H-pyran-4-ylmethoxy)phenyl]sulfonyl}benzamide], at GST-Bcl-XL, the affinity, expressed as Ki, was 4.82 nM. In addition, on GST-Bcl-2, the Ki is under 0.01 nM and the “Binding selectivity ratio” value was over 482.3.

At GST-Bcl-XL, `CC1(C)CCC(CN2CCN(c3ccc(C(=O)NS(=O)(=O)c4ccc(OCC5(F)CCN(C6COC6)CC5)c(Cl)c4)c(Oc4cccc5[nH]ncc45)c3)CC2)=C(c2ccc(Cl)cc2)C1` [Example 517, N-[(3-chloro-4-{[4-fluoro-1-(oxetan-3-yl)piperidin-4-yl]methoxy}phenyl)sulfonyl]-4-(4-{[2-(4-chlorophenyl)-4,4-dimethylcyclohex-1-en-1-yl]methyl}piperazin-1-yl)-2-(1H-indazol-4-yloxy)benzamide] had a Ki of 6.08 nM. Further, at GST-Bcl-2, the Ki was under 0.01 nM and the “Binding selectivity ratio” value is listed as over 607.7.

Turning to `CC1(C)CCC(CN2CCN(c3ccc(C(=O)NS(=O)(=O)c4cnc(OCC5(F)CCC(O)CC5)c(Cl)c4)c(Oc4cccc5[nH]ncc45)c3)CC2)=C(c2ccc(Cl)cc2)C1` (stereo not drawn) [Example 518, N-({5-chloro-6-[(cis-1-fluoro-4-hydroxycyclohexyl)methoxy]pyridin-3-yl}sulfonyl)-4-(4-{[2-(4-chlorophenyl)-4,4-dimethylcyclohex-1-en-1-yl]methyl}piperazin-1-yl)-2-(1H-indazol-4-yloxy)benzamide], the Ki at GST-Bcl-XL was 2.55 nM; at GST-Bcl-2, under 0.01 nM. The “Binding selectivity ratio” value on GST-Bcl-2 is reported as over 254.6.

Consider `CC1(C)CCC(CN2CCN(c3ccc(C(=O)NS(=O)(=O)c4ccc(OCC5(F)CCOCC5)c([N+](=O)[O-])c4)c(Oc4cccc5[nH]nnc45)c3)CC2)=C(c2ccc(Cl)cc2)C1` [Example 519, 2-(1H-benzotriazol-4-yloxy)-4-(4-{[2-(4-chlorophenyl)-4,4-dimethylcyclohex-1-en-1-yl]methyl}piperazin-1-yl)-N-({4-[(4-fluorotetrahydro-2H-pyran-4-yl)methoxy]-3-nitrophenyl}sulfonyl)benzamide], for which the affinity on GST-Bcl-XL corresponds to a Ki of 311 nM. In addition, at GST-Bcl-2, affinity was put at a Ki of 0.012 nM and the “Binding selectivity ratio” value worked out at 25935.4.

For the molecule `CC1(C)CCC(CN2CCN(c3ccc(C(=O)NS(=O)(=O)c4cnc(OC[C@@H]5C[C@H]6C[C@@H]5C[C@@]6(C)O)c(Cl)c4)c(Oc4cccc5[nH]ncc45)c3)CC2)=C(c2ccc(Cl)cc2)C1` [Example 520, N-[(5-chloro-6-{[(1R,2R,4R,5R)-5-hydroxy-5-methylbicyclo[2.2.1]hept-2-yl]methoxy}pyridin-3-yl)sulfonyl]-4-(4-{[2-(4-chlorophenyl)-4,4-dimethylcyclohex-1-en-1-yl]methyl}piperazin-1-yl)-2-(1H-indazol-4-yloxy)benzamide], on GST-Bcl-XL, the affinity corresponds to a Ki of 15.4 nM. At GST-Bcl-2, the Ki was under 0.01 nM and the “Binding selectivity ratio” value was over 1537.8.

`O=C(NS(=O)(=O)c1cnc(OCC2(F)CCOCC2)c(Cl)c1)c1ccc(N2CCN(CC3=C(c4ccc(Cl)cc4)CCC(F)(F)C3)CC2)cc1Oc1cccc2[nH]ncc12` [Example 521, N-({5-chloro-6-[(4-fluorotetrahydro-2H-pyran-4-yl)methoxy]pyridin-3-yl}sulfonyl)-4-(4-{[2-(4-chlorophenyl)-5,5-difluorocyclohex-1-en-1-yl]methyl}piperazin-1-yl)-2-(1H-indazol-4-yloxy)benzamide]: the Ki at GST-Bcl-XL is 4.67 nM; on GST-Bcl-2, under 0.01 nM. In addition, on GST-Bcl-2, the “Binding selectivity ratio” value is on record as over 466.9.

As to `O=C(NS(=O)(=O)c1cnc(OCC2(F)CCN(C3COC3)CC2)c(Cl)c1)c1ccc(N2CCN(CC3=C(c4ccc(Cl)cc4)CCC(F)(F)C3)CC2)cc1Oc1cccc2[nH]ncc12` [Example 522, N-[(5-chloro-6-{[4-fluoro-1-(oxetan-3-yl)piperidin-4-yl]methoxy}pyridin-3-yl)sulfonyl]-4-(4-{[2-(4-chlorophenyl)-5,5-difluorocyclohex-1-en-1-yl]methyl}piperazin-1-yl)-2-(1H-indazol-4-yloxy)benzamide], the affinity at GST-Bcl-XL, expressed as Ki, was 2.08 nM. For the same molecule, on GST-Bcl-2, the inhibition constant Ki is under 0.01 nM and the “Binding selectivity ratio” value is recorded as over 207.9.

`CC1(C)CCC(CN2CCN(c3ccc(C(=O)NS(=O)(=O)c4ccc(NCC5CCOCC5)c([N+](=O)[O-])c4)c(Oc4cccc5[nH]nnc45)c3)CC2)=C(c2ccc(Cl)cc2)C1` [Example 523, 2-(1H-benzotriazol-4-yloxy)-4-(4-{[2-(4-chlorophenyl)-4,4-dimethylcyclohex-1-en-1-yl]methyl}piperazin-1-yl)-N-({3-nitro-4-[(tetrahydro-2H-pyran-4-ylmethyl)amino]phenyl}sulfonyl)benzamide]: the inhibition constant (Ki) on GST-Bcl-XL stood at 49.4 nM. Also, at GST-Bcl-2, the Ki was under 0.01 nM and the “Binding selectivity ratio” value is reported as over 4944.4.

As to `O=C(NS(=O)(=O)c1ccc(NCC2CCOCC2)c([N+](=O)[O-])c1)c1ccc(N2CCN(CC3=C(c4ccc(Cl)cc4)CCC(F)(F)C3)CC2)cc1Oc1cccc2[nH]ncc12` [Example 524, 4-(4-{[2-(4-chlorophenyl)-5,5-difluorocyclohex-1-en-1-yl]methyl}piperazin-1-yl)-2-(1H-indazol-4-yloxy)-N-({3-nitro-4-[(tetrahydro-2H-pyran-4-ylmethyl)amino]phenyl}sulfonyl)benzamide], on GST-Bcl-XL, the Ki came to 22.2 nM. Besides, on GST-Bcl-2, the Ki was under 0.01 nM and the “Binding selectivity ratio” value was over 2218.4.

Turning to `CC1(C)CCC(CN2CCN(c3ccc(C(=O)NS(=O)(=O)c4ccc(NC[C@H]5CC[C@](C)(O)CC5)c([N+](=O)[O-])c4)c(Oc4cccc5[nH]ncc45)c3)CC2)=C(c2ccc(Cl)cc2)C1` [Example 525, 4-(4-{[2-(4-chlorophenyl)-4,4-dimethylcyclohex-1-en-1-yl]methyl}piperazin-1-yl)-N-[(4-{[(trans-4-hydroxy-4-methylcyclohexyl)methyl]amino}-3-nitrophenyl)sulfonyl]-2-(1H-indazol-4-yloxy)benzamide], the affinity on GST-Bcl-XL corresponds to a Ki of 19 nM. Further, on GST-Bcl-2, the Ki was under 0.01 nM and the “Binding selectivity ratio” value is given as over 1898.4.
